Patent publication US20200078393A1, “COMPOSITION COMPRISING HYDROGEN GAS FOR SUPPRESSION OR PREVENTION OF CANCER METASTASIS” (MiZ Company Limited, priority 2018, published 2020)
Like-named read-outs stand apart in the source and are kept apart here.

Tested on: progressive prostatic cancer in stage 4 with confirmed bone metastasis

[HH] [hydrogen gas, hydrogen]
PSA value (about 1 month after suction started, hydrogen 6.6% by volume, 60 to 90 minutes/day, with bicalutamide, Flivas OD, initial 92.5): 12.74 ng/mL
PSA value (about 2 months after suction started, with internal medicines, before the anticancer agent infusion): 7.53 ng/mL
shade densities at the parts of bone metastasis, whole body scintigraphy (about 12 months after suction started, visually inspected, combined therapy): a half or less
PSA value (about 12.5 months after suction started, with internal medicines, docetaxel infusions and hormone injections): 1.69 ng/mL
